Assay: Log of liquid dish neat product liquid-air partition coefficient
Format: physicochemical
Settings: not given

Structure (SMILES)	Comment Code: Log of liquid dish neat product liquid-air partition coefficient
CCOc1cc(COC)ccc1O [Material 115]	K (Log of liquid dish neat product liquid-air partition coefficient greater than or equal to 7)
COC(C)(C)CCCC(C)C=O (stereo not shown) [Material 125]	K (Log of liquid dish neat product liquid-air partition coefficient greater than or equal to 7)
CC(C)C1CCC(CO)CC1 (stereo not shown) [Material 133]	K (Log of liquid dish neat product liquid-air partition coefficient greater than or equal to 7)
CC1OC(C)C2Cc3ccccc3C2O1 (stereo not shown) [Material 141]	K (Log of liquid dish neat product liquid-air partition coefficient greater than or equal to 7)
C=CC(C)(CCC=C(C)C)OC=O (stereo not shown) [Material 150]	K (Log of liquid dish neat product liquid-air partition coefficient greater than or equal to 7)
C=CC(C)(CCC=C(C)C)OC(=O)CCC (stereo not shown) [Material 151]	K (Log of liquid dish neat product liquid-air partition coefficient greater than or equal to 7)
C=CC(C)(CCC=C(C)C)OC(C)=O (stereo not shown) [Material 154]	K (Log of liquid dish neat product liquid-air partition coefficient greater than or equal to 7)
C=CC(C)(O)CCC=C(C)C (stereo not shown) [Material 157]	K (Log of liquid dish neat product liquid-air partition coefficient greater than or equal to 7)
C=C1[C@H]2CC[C@H](CO)[C@@]23CC[C@H](C3)C1(C)C [Material 183]	K (Log of liquid dish neat product liquid-air partition coefficient greater than or equal to 7)
CC1(CO)CC1CC1CC2CC2(C)C1(C)C (stereo not shown) [Material 185]	K (Log of liquid dish neat product liquid-air partition coefficient greater than or equal to 7)
CC1CCCCCCCCCCCCC(=O)C1 (stereo not shown) [Material 206]	K (Log of liquid dish neat product liquid-air partition coefficient greater than or equal to 7)
CC=Cc1ccc(OC(C)=O)c(OC)c1 [Material 213]	K (Log of liquid dish neat product liquid-air partition coefficient greater than or equal to 7)
CC=Cc1ccc(O)c(OC)c1 [Material 214]	K (Log of liquid dish neat product liquid-air partition coefficient greater than or equal to 7)
CC(=O)[C@@]1(C)CC2=C(CCCC2(C)C)C[C@@H]1C [Material 215]	K (Log of liquid dish neat product liquid-air partition coefficient greater than or equal to 7)
CC(C)C(=O)OC1CC2CCC1(C)C2(C)C (stereo not shown) [Material 229]	K (Log of liquid dish neat product liquid-air partition coefficient greater than or equal to 7)
CC1C2CC(CC2C2CCC(O)CC2)C1(C)C (stereo not shown) [Material 230]	K (Log of liquid dish neat product liquid-air partition coefficient greater than or equal to 7)
CCCCCCCC(=O)OCCC(C)C [Material 237]	K (Log of liquid dish neat product liquid-air partition coefficient greater than or equal to 7)

Same assay, conditions: code letter within the Comment Code cell

Structure (SMILES)	Log of liquid dish neat product liquid-air partition coefficient (Comment Code K/L)
CCCCCC1C(=O)CCC1CC(=O)OC (stereo not shown) [Material 113]	K (Log of liquid dish neat product liquid-air partition coefficient greater than or equal to 7)
Cc1cccc(Oc2ccccc2)c1 [Material 114]	K (Log of liquid dish neat product liquid-air partition coefficient greater than or equal to 7)
COC(=O)C=Cc1ccccc1 [Material 117]	K (Log of liquid dish neat product liquid-air partition coefficient greater than or equal to 7)
C=CCc1ccc(OC)cc1 [Material 119]	K (Log of liquid dish neat product liquid-air partition coefficient greater than or equal to 7)
CC(=O)c1ccc2ccccc2c1 [Material 120]	K (Log of liquid dish neat product liquid-air partition coefficient greater than or equal to 7)
COC(C)(C)CCCC(C)CC=O (stereo not shown) [Material 126]	K (Log of liquid dish neat product liquid-air partition coefficient greater than or equal to 7)
CC(C=O)Cc1cccc(C(C)(C)C)c1 (stereo not shown) [Material 134]	K (Log of liquid dish neat product liquid-air partition coefficient greater than or equal to 7)
CC(C)=CCCC(C)=CCCc1ccncc1 [Material 135]	K (Log of liquid dish neat product liquid-air partition coefficient greater than or equal to 7)
C=CCCCCCCCC=CCC#N [Material 137]	K (Log of liquid dish neat product liquid-air partition coefficient greater than or equal to 7)
Cc1cccc(CC(C)(C)CO)c1 [Material 140]	K (Log of liquid dish neat product liquid-air partition coefficient greater than or equal to 7)
CC1OC(C)C2Cc3ccccc3C2O1 (stereo not shown) [Material 141]	K (Log of liquid dish neat product liquid-air partition coefficient greater than or equal to 7)
CC1=CC2CC(C=O)C1CC2C(C)C (stereo not shown) [Material 142]	K (Log of liquid dish neat product liquid-air partition coefficient greater than or equal to 7)
CC/C=C\CCC1=CCCC1=O [Material 146]	K (Log of liquid dish neat product liquid-air partition coefficient greater than or equal to 7)
C=CC(C)(CCC=C(C)C)OC(=O)C(C)C (stereo not shown) [Material 149]	K (Log of liquid dish neat product liquid-air partition coefficient greater than or equal to 7)
C=CC1(C)CCC(C(C)(C)O)O1 (stereo not shown) [Material 155]	K (Log of liquid dish neat product liquid-air partition coefficient greater than or equal to 7)
C=CC1(C)CCC(C(C)(C)O)O1 (stereo not shown) [Material 156]	K (Log of liquid dish neat product liquid-air partition coefficient greater than or equal to 7)
CC/C(C)=C/CC/C(C)=C\C#N [Material 158]	K (Log of liquid dish neat product liquid-air partition coefficient greater than or equal to 7)
CC1=CCC(C(C)CC=O)CC1 (stereo not shown) [Material 159]	K (Log of liquid dish neat product liquid-air partition coefficient greater than or equal to 7)
Cc1ccc2c(c1)CC(C)(CO)C2 (stereo not shown) [Material 161]	K (Log of liquid dish neat product liquid-air partition coefficient greater than or equal to 7)

Structure (SMILES)	Log of liquid dish neat product liquid-air partition coefficient (Comment Code K/L)
CC(C=O)Cc1ccc(C(C)(C)C)cc1 (stereo not shown) [Material 162]	K (Log of liquid dish neat product liquid-air partition coefficient greater than or equal to 7)
C=C(C)C1CC=C(C)C(O)C1 (stereo not shown) [Material 170]	K (Log of liquid dish neat product liquid-air partition coefficient greater than or equal to 7)
CCCCCCCCCCCCOC(C)=O [Material 175]	K (Log of liquid dish neat product liquid-air partition coefficient greater than or equal to 7)
CCCCCCCCCCCC=O [Material 178]	K (Log of liquid dish neat product liquid-air partition coefficient greater than or equal to 7)
C=C(OCC)C1C(C)(C)CC(=O)CC1(C)C [Material 182]	K (Log of liquid dish neat product liquid-air partition coefficient greater than or equal to 7)
C=C1[C@H]2CC[C@H](CO)[C@@]23CC[C@H](C3)C1(C)C [Material 183]	K (Log of liquid dish neat product liquid-air partition coefficient greater than or equal to 7)
CC1(CO)CC1CC1CC2CC2(C)C1(C)C (stereo not shown) [Material 185]	K (Log of liquid dish neat product liquid-air partition coefficient greater than or equal to 7)
CC1OCC(c2ccccc2)O1 (stereo not shown) [Material 190]	K (Log of liquid dish neat product liquid-air partition coefficient greater than or equal to 7)
CC1=CCC(C)C(C)C12C=CC(C)O2 (stereo not shown) [Material 192]	K (Log of liquid dish neat product liquid-air partition coefficient greater than or equal to 7)
CCCCCCCCCCCCCC(=O)OC(C)C [Material 196]	K (Log of liquid dish neat product liquid-air partition coefficient greater than or equal to 7)
CCCCCCCCCCCC(=O)OC(C)C [Material 197]	K (Log of liquid dish neat product liquid-air partition coefficient greater than or equal to 7)
CC1CCCCCCCCCCCCC(=O)C1 (stereo not shown) [Material 206]	K (Log of liquid dish neat product liquid-air partition coefficient greater than or equal to 7)
CC(C)=CCCC1=CCC(C=O)CC1 (stereo not shown) [Material 211]	K (Log of liquid dish neat product liquid-air partition coefficient greater than or equal to 7)
CC(=O)[C@@]1(C)CC2=C(CCCC2(C)C)C[C@@H]1C [Material 215]	K (Log of liquid dish neat product liquid-air partition coefficient greater than or equal to 7)
CCC(=O)OC1CC2CCC1(C)C2(C)C (stereo not shown) [Material 228]	K (Log of liquid dish neat product liquid-air partition coefficient greater than or equal to 7)
CC(C)C(=O)OC1CC2CCC1(C)C2(C)C (stereo not shown) [Material 229]	K (Log of liquid dish neat product liquid-air partition coefficient greater than or equal to 7)
CC1C2CC(CC2C2CCC(O)CC2)C1(C)C (stereo not shown) [Material 230]	K (Log of liquid dish neat product liquid-air partition coefficient greater than or equal to 7)
C=CCCCCCCCCC(=O)OCCC(C)C [Material 234]	K (Log of liquid dish neat product liquid-air partition coefficient greater than or equal to 7)
CCCCCCCCCCCC(=O)OCCC(C)C [Material 238]	K (Log of liquid dish neat product liquid-air partition coefficient greater than or equal to 7)
